In PubChem BioAssay (NCI):
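These data come from cells grown in 96-well plates and exposed to compound for 48 hours at five concentrations. GI50: concentration for 50% inhibition of growth. TGI is the concentration that stops growth completely.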

What was measured:
Experiment in all cases: growth of human tumour cells (NCI), 48 h
[1] = system: HS 578T breast
[2] = system: EKVX NSCLC
[3] = system: KM12 colon
[4] = system: UACC-62 melanoma
[5] = system: SNB-75 CNS
[6] = system: SK-MEL-28 melanoma
[7] = system: BT-549 breast
[8] = system: NCI-H23 lung
[9] = system: 786-0 renal
[10] = system: UACC-257 melanoma
[11] = system: PC-3 prostate
[12] = system: T-47D breast
[13] = system: LOX IMVI melanoma
[14] = system: SR leukemia
[15] = system: RPMI-8226 leukemia
[16] = system: HL-60(TB) leukemia
[17] = system: MOLT-4 leukemia
[18] = system: HCT-15 colon
[19] = system: HOP-92 NSCLC
[20] = system: SK-MEL-5 melanoma
[21] = system: HCC-2998 colon
[22] = system: U251 CNS
[23] = system: OVCAR-8 ovarian
[24] = system: SW-620 colon
[25] = system: HT29 colon
[26] = system: SK-OV-3 ovarian
[27] = system: COLO 205 colon
[28] = system: OVCAR-5 ovarian
[29] = system: DU-145 prostate
[30] = system: A549 NSCLC
[31] = system: HOP-62 NSCLC
[32] = system: MALME-3M melanoma
[33] = system: A498 renal
[34] = system: SNB-19 CNS
[35] = system: K-562 leukemia
[36] = system: SN12C renal
[37] = system: NCI-H522 lung
[38] = system: IGROV1 ovarian
[39] = system: MDA-MB-435
[40] = system: SF-268 CNS
[41] = system: CAKI-1 renal
[42] = system: ACHN renal
[43] = system: NCI-H226 lung
[44] = system: TK-10 renal
[45] = system: CCRF-CEM leukemia
[46] = system: SF-539 CNS
[47] = system: M14 melanoma
[48] = system: SF-295 CNS
[49] = system: MCF7 breast
[50] = system: MDA-MB-231 breast
[51] = system: SK-MEL-2 melanoma

In the case of `CSc1nn2c(-c3ccc4ccccc4c3)ccnc2c1C#N`, the GI50 [1] is reported as 1.05 µM, the TGI [1] is reported as greater than 100 µM and the GI50 [2] is reported as 3.04 µM. It also gave a TGI [2] greater than 100 µM, a GI50 [3] of 0.49 µM and a TGI [3] greater than 100 µM. The GI50 [4] was 0.439 µM, the TGI [4] was 6.51 µM and the GI50 [5] was 0.197 µM. The TGI [5] was 1.51 µM, the GI50 [6] was 1.16 µM and the TGI [6] was greater than 100 µM. For the same compound, the GI50 [7] was 2.29 µM, the TGI [7] was greater than 100 µM and the GI50 [8] was 2.04 µM. The TGI [8] was greater than 100 µM, the GI50 [9] was 2.11 µM and the TGI [9] was greater than 100 µM. For the same compound, the GI50 [10] was 6.93 µM, the TGI [10] was greater than 100 µM and the GI50 [11] was 2.98 µM. The TGI [11] was greater than 100 µM, the GI50 [12] was 4.05 µM and the TGI [12] was greater than 100 µM. The GI50 [13] was 0.754 µM, the TGI [13] was greater than 100 µM and the GI50 [14] was 0.343 µM. For the same compound, the TGI [14] was greater than 100 µM, the GI50 [15] was 0.599 µM and the TGI [15] was greater than 100 µM. For the same compound, the GI50 [16] was 0.668 µM, the TGI [16] was greater than 100 µM and the GI50 [17] was 0.668 µM. The TGI [17] was greater than 100 µM, the GI50 [18] was 0.39 µM and the TGI [18] was greater than 100 µM. For the same compound, the GI50 [19] was 1.71 µM, the TGI [19] was 6.55 µM and the GI50 [20] was 0.693 µM. The TGI [20] was greater than 100 µM, the GI50 [21] was 6.02 µM and the TGI [21] was greater than 100 µM. The GI50 [22] was 0.989 µM, the TGI [22] was greater than 100 µM and the GI50 [23] was 0.944 µM. The TGI [23] was greater than 100 µM, the GI50 [24] was 0.428 µM and the TGI [24] was greater than 100 µM. It also gave a GI50 [25] of 0.454 µM, a TGI [25] greater than 100 µM and a GI50 [26] of 2.2 µM. For the same compound, the TGI [26] was greater than 100 µM, the GI50 [27] was 0.727 µM and the TGI [27] was greater than 100 µM. The GI50 [28] was 5.14 µM, the TGI [28] was greater than 100 µM and the GI50 [29] was 6.99 µM. It also gave a TGI [29] greater than 100 µM, a GI50 [30] of 0.828 µM and a TGI [30] greater than 100 µM. For the same compound, the GI50 [31] was 1.09 µM, the TGI [31] was greater than 100 µM and the GI50 [32] was 0.663 µM. It also gave a TGI [32] of 44.5 µM, a GI50 [33] of 0.176 µM and a TGI [33] of 0.897 µM. For the same compound, the GI50 [34] was 1.22 µM, the TGI [34] was greater than 100 µM and the GI50 [35] was 0.306 µM. It also gave a TGI [35] greater than 100 µM, a GI50 [36] of 0.857 µM and a TGI [36] greater than 100 µM. For the same compound, the GI50 [37] was 0.442 µM, the TGI [37] was greater than 100 µM and the GI50 [38] was 0.763 µM. The TGI [38] was greater than 100 µM, the GI50 [39] was 0.229 µM and the TGI [39] was 0.641 µM. For the same compound, the GI50 [40] was 1.29 µM, the TGI [40] was greater than 100 µM and the GI50 [41] was 0.55 µM. For the same compound, the TGI [41] was greater than 100 µM, the GI50 [42] was 1.14 µM and the TGI [42] was greater than 100 µM. It also gave a GI50 [43] of 2.81 µM, a TGI [43] greater than 100 µM and a GI50 [44] of 5.09 µM. For the same compound, the TGI [44] was greater than 100 µM, the GI50 [45] was 7.51 µM and the TGI [45] was greater than 100 µM. It also gave a GI50 [46] of 1.3 µM, a TGI [46] of 64.8 µM and a GI50 [47] of 0.39 µM. For the same compound, the TGI [47] was 27.4 µM, the GI50 [48] was 1.78 µM and the TGI [48] was greater than 100 µM. For the same compound, the GI50 [49] was 1.3 µM, the TGI [49] was greater than 100 µM and the GI50 [50] was 1.11 µM. For the same compound, the TGI [50] was 5.88 µM, the GI50 [51] was 0.874 µM and the TGI [51] was greater than 100 µM.
